US20090111801A1, “SUBSTITUTED PYRAZINONE DERIVATIVES FOR USE AS A MEDICINE” (Janssen Pharmaceutica N.V., priority 2006, published 2009)

What was measured:
[1] = molecular target: T1, hα2A receptor (Homo sapiens, UniProt P08913); test: Radioligand binding experiment for α2A-adrenoceptor ([3H]raulwolscine, CHO cell membranes); conditions: [3H]raulwolscine binding; for IC50: read-out: h-α2A pIC50 (converted)
T1 construct: expressed in transfected cells; host or cells: CHO cells, stably transfected; membrane preparation
T1 sequence (P08913 1-465): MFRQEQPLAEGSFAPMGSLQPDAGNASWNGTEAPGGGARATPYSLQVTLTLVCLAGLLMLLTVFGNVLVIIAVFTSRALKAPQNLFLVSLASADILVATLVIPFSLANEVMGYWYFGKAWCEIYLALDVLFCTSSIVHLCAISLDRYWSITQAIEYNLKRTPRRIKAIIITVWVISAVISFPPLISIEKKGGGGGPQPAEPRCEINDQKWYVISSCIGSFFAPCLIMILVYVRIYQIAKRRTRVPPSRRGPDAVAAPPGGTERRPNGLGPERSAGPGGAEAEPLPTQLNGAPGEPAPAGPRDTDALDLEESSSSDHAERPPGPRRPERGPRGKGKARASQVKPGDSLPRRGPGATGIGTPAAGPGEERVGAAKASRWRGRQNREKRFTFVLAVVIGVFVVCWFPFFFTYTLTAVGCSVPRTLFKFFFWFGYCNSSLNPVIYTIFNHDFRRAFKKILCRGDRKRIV

[2] = molecular target: T2, hα2C receptor (Homo sapiens, UniProt P18825); test: Radioligand binding experiment for α2C-adrenoceptor ([3H]raulwolscine, CHO cell membranes); conditions: [3H]raulwolscine binding; for IC50: read-out: h-α2C pIC50 (converted)
T2 construct: expressed in transfected cells; host or cells: CHO cells, stably transfected; membrane preparation
T2 sequence (P18825 1-462): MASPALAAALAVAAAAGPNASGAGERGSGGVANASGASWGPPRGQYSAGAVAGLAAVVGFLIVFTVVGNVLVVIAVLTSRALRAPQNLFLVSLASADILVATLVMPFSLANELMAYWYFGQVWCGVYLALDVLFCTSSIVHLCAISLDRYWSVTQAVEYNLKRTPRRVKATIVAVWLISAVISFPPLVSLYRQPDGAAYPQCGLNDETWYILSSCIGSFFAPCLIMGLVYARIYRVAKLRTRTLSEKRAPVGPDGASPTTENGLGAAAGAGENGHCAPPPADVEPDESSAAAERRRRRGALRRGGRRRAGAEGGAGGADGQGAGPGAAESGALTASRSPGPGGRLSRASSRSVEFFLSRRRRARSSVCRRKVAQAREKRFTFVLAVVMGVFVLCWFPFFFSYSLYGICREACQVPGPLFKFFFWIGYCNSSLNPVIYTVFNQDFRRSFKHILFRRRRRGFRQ

[3] = molecular target: T3, 5HT-Transporter (Homo sapiens, UniProt P31645); test: Binding experiment for the 5HT-transporter ([3H]paroxetine, human platelet membranes); conditions: [3H]paroxetine 0.5 nM; for IC50: read-out: h-5HTT pIC50 (converted)
T3 construct: Human platelet membranes (Oceanix Biosciences Corporation, Hanover, Md., USA) were thawed; tissue Oceanix Biosciences Corporation, Hanover, Md., USA; host or cells: human platelet membranes
T3 sequence (P31645 whole entry): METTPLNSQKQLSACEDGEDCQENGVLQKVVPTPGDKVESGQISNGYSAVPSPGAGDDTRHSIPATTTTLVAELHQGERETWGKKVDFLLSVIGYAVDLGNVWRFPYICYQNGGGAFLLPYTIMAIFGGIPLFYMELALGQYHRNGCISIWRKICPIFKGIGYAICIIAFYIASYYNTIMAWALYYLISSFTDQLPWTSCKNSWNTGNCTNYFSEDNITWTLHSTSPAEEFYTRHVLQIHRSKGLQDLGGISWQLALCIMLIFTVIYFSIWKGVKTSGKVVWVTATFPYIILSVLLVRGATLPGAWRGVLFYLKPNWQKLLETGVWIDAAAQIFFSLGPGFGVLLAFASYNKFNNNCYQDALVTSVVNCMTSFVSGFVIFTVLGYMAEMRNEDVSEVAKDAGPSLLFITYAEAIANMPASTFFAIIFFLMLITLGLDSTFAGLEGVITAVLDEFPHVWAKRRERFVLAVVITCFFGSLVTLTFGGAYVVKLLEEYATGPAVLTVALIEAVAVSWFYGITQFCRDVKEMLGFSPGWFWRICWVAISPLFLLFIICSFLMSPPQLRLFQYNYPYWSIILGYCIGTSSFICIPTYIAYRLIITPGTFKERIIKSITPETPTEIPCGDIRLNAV
In short: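 Competition binding of [3H]paroxetine to human platelet membranes in Tris-HCl 50 mM, 120 mM NaCl, 5 mM KCl, with filtration and scintillation counting.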

IC50 [1] [nM]	IC50 [2] [nM]	IC50 [3] [nM]	h-α2A pIC50 [1]	h-α2C pIC50 [2]	h-5HTT pIC50 [3]	Compound
63.1	5.01	398	–	–	–	C/C(=C\c1ccccc1)CN1CCC(Nc2nccn(-c3ccc(C(=O)N4CCC(N(C)C)C4)cc3)c2=O)CC1 (stereo not drawn) [2-2]
63.1	6.31	3160	–	–	–	C/C(=C\c1ccccc1)CN1CCC(Nc2nccn(CCN3CCCCC3)c2=O)CC1 [2-3]
3.98	2.51	316	–	–	–	C/C(=C\c1ccccc1)CN1CCC(Nc2nccn(-c3cccc(N4CCCCC4)c3)c2=O)CC1 [2-6]
50.1	5.01	1260	–	–	–	C/C(=C\c1ccccc1)CN1CCC(Nc2nccn(-c3ccc(N4CCCCC4)cc3)c2=O)CC1 [2-7]
39.8	10	501	–	–	–	C/C(=C\c1ccccc1)CN1CCC(Nc2nccn(-c3ccc(N4CCCCC4)cc3)c2=O)CC1 [2-8]
0.631	0.2	200	–	–	–	C/C(=C\c1ccccc1)CN1CCC(Nc2nccn(-c3cccc(CN4CCCCC4)c3)c2=O)CC1 [2-9]
31.6	1.58	251	–	–	–	C/C(=C\c1ccccc1)CN1CCC(Nc2nccn(-c3ccc(CN4CCCCC4)cc3)c2=O)CC1 [2-10]
63.1	6.31	501	–	–	–	C/C(=C\c1ccccc1)CN1CCC(Nc2nccn(-c3ccc(C(=O)N4CCC(C)CC4)cc3)c2=O)CC1 [2-11]
63.1	3.98	2000	–	–	–	C/C(=C\c1ccccc1)CN1CCC(Nc2nccn(CC(=O)N3CCC(C(F)(F)F)CC3)c2=O)CC1 [2-12]
100	5.01	251	–	–	–	C/C(=C\c1ccccc1)CN1CCC(Nc2nccn(CC(=O)N3CCC(Cc4ccccc4)CC3)c2=O)CC1 [2-13]
126	7.94	5010	–	–	–	C/C(=C\c1ccccc1)CN1CCC(Nc2nccn(CC(=O)N3CCC(O)(c4ccccc4)CC3)c2=O)CC1 [2-14]
126	3.98	3980	–	–	–	COC(=O)C1CCN(C(=O)Cn2ccnc(NC3CCN(C/C(C)=C/c4ccccc4)CC3)c2=O)CC1 [2-15]
50.1	5.01	501	–	–	–	COC(=O)C1CCN(C(=O)c2ccc(-n3ccnc(NC4CCN(C/C(C)=C/c5ccccc5)CC4)c3=O)cc2)CC1 [2-16]
25.1	1.58	2000	–	–	–	C/C(=C\c1ccccc1)CN1CCC(Nc2nccn(CC(=O)N3CCC(N4CCCC4)CC3)c2=O)CC1 [2-17]
12.6	1.26	794	–	–	–	C/C(=C\c1ccccc1)CN1CCC(Nc2nccn(-c3cccc(N4CCC(N5CCCC5)CC4)c3)c2=O)CC1 [2-18]
50.1	5.01	631	–	–	–	C/C(=C\c1ccccc1)CN1CCC(Nc2nccn(-c3ccc(N4CCC(N5CCCC5)CC4)cc3)c2=O)CC1 [2-19]
63.1	3.16	2510	–	–	–	C/C(=C\c1ccccc1)CN1CCC(Nc2nccn(CC(=O)N3CCN(C)CC3)c2=O)CC1 [2-20]
100	10	501	–	–	–	C/C(=C\c1ccccc1)CN1CCC(Nc2nccn(-c3ccc(C(=O)N4CCN(C)CC4)cc3)c2=O)CC1 [2-21]
126	25.1	> 10000	–	–	–	CC(=O)N1CCN(C(=O)Cn2ccnc(NC3CCN(C/C(C)=C/c4ccccc4)CC3)c2=O)CC1 [2-22]
–	–	–	6.1	7.4	5.1	CC(=O)N1CCN(Cc2ccc(-n3ccnc(NC4CCN(C/C(C)=C/c5ccccc5)CC4)c3=O)cc2)CC1 [2-23]
100	3.16	5010	–	–	–	C=CCN1CCN(C(=O)Cn2ccnc(NC3CCN(C/C(C)=C/c4ccccc4)CC3)c2=O)CC1 [2-24]
126	7.94	501	–	–	–	C=CCN1CCN(C(=O)c2ccc(-n3ccnc(NC4CCN(C/C(C)=C/c5ccccc5)CC4)c3=O)cc2)CC1 [2-25]
126	7.94	794	–	–	–	C/C(=C\c1ccccc1)CN1CCC(Nc2nccn(CC(=O)N3CCN(c4ccccc4)CC3)c2=O)CC1 [2-26]

IC50 [1] [nM]	IC50 [2] [nM]	IC50 [3] [nM]	h-α2A pIC50 [1]	h-α2C pIC50 [2]	h-5HTT pIC50 [3]	Compound
31.6	20	200	–	–	–	C/C(=C\c1ccccc1)CN1CCC(Nc2nccn(-c3cccc(N4CCN(c5ccccc5)CC4)c3)c2=O)CC1 [2-27]
100	15.8	794	–	–	–	C/C(=C\c1ccccc1)CN1CCC(Nc2nccn(-c3ccc(N4CCN(c5ccccc5)CC4)cc3)c2=O)CC1 [2-28]
158	31.6	100	–	–	–	C/C(=C\c1ccccc1)CN1CCC(Nc2nccn(CC(=O)N3CCN(c4ccc(C)c(C)c4)CC3)c2=O)CC1 [2-29]
79.4	2	794	–	–	–	C/C(=C\c1ccccc1)CN1CCC(Nc2nccn(CC(=O)N3CCN(Cc4ccccc4)CC3)c2=O)CC1 [2-30]
31.6	6.31	398	–	–	–	C/C(=C\c1ccccc1)CN1CCC(Nc2nccn(-c3cccc(N4CCN(Cc5ccccc5)CC4)c3)c2=O)CC1 [2-31]
200	12.6	1260	–	–	–	C/C(=C\c1ccccc1)CN1CCC(Nc2nccn(-c3ccc(C(=O)N4CCN(Cc5ccccc5)CC4)cc3)c2=O)CC1 [2-32]
126	15.8	200	–	–	–	C/C(=C\c1ccccc1)CN1CCC(Nc2nccn(-c3ccc(C(=O)N4CCN(CCc5ccccc5)CC4)cc3)c2=O)CC1 [2-33]
100	5.01	631	–	–	–	C/C(=C\c1ccccc1)CN1CCC(Nc2nccn(-c3ccc(C(=O)N4CCN(c5ncccn5)CC4)cc3)c2=O)CC1 [2-34]
158	31.6	2510	–	–	–	CCOC(=O)N1CCN(C(=O)Cn2ccnc(NC3CCN(C/C(C)=C/c4ccccc4)CC3)c2=O)CC1 [2-35]
100	10	1580	–	–	–	CCOC(=O)N1CCN(Cc2cccc(-n3ccnc(NC4CCN(C/C(C)=C/c5ccccc5)CC4)c3=O)c2)CC1 [2-36]
398	31.6	6310	–	–	–	CCOC(=O)N1CCN(Cc2ccc(-n3ccnc(NC4CCN(C/C(C)=C/c5ccccc5)CC4)c3=O)cc2)CC1 [2-37]
158	39.8	7940	–	–	–	C/C(=C\c1ccccc1)CN1CCC(Nc2nccn(CC(=O)N3CCN(C(=O)C4CCCO4)CC3)c2=O)CC1 (stereo not drawn) [2-38]
316	20	7940	–	–	–	C/C(=C\c1ccccc1)CN1CCC(Nc2nccn(CCN3CCOCC3)c2=O)CC1 [2-39]
126	12.6	3980	–	–	–	C/C(=C\c1ccccc1)CN1CCC(Nc2nccn(CC(=O)N3CCOCC3)c2=O)CC1 [2-41]
7.94	3.16	794	–	–	–	C/C(=C\c1ccccc1)CN1CCC(Nc2nccn(-c3cccc(N4CCOCC4)c3)c2=O)CC1 [2-42]
126	20	3980	–	–	–	C/C(=C\c1ccccc1)CN1CCC(Nc2nccn(-c3ccc(N4CCOCC4)cc3)c2=O)CC1 [2-43]
50.1	6.31	2000	–	–	–	C/C(=C\c1ccccc1)CN1CCC(Nc2nccn(-c3ccc(CN4CCOCC4)cc3)c2=O)CC1 [2-44]
50.1	10	794	–	–	–	C/C(=C\c1ccccc1)CN1CCC(Nc2nccn(Cc3cccc(CN4CCOCC4)c3)c2=O)CC1 [2-45]
31.6	3.98	794	–	–	–	C/C(=C\c1ccccc1)CN1CCC(Nc2nccn(-c3ccc(C(=O)N4CCOCC4)cc3)c2=O)CC1 [2-46]
200	31.6	3980	–	–	–	C/C(=C\c1ccccc1)CN1CCC(Nc2nccn(CCn3cccc3)c2=O)CC1 [2-47]
31.6	6.31	158	–	–	–	C/C(=C\c1ccccc1)CN1CCC(Nc2nccn(CN3C(=O)c4ccccc4C3=O)c2=O)CC1 [2-48]
158	15.8	1000	–	–	–	C/C(=C\c1ccccc1)CN1CCC(Nc2nccn(CCN3C(=O)c4ccccc4C3=O)c2=O)CC1 [2-49]
